Reference: BindingDB's records for doi:10.1021/jm00101a008 (Centre De Recherche De Vitry-Alfortville, 1992)

Columns and labels:
[1] = target: Leukotriene B4 receptor (Cavia porcellus); assay: Inhibition of [3H]LTB4 binding to Leukotriene B4 receptor in the guinea pig spleen membranes.
[2] = target: Leukotriene B4 receptor (Cavia porcellus); assay: as above; remark: listed apart in the source

| Structure (SMILES) | IC50 [1] | IC50 [2] |
| --- | --- | --- |
| CC(C)(CCCCCCOc1cc(-c2ccccc2)cc(-c2ccccc2)n1)C(=O)O | 0.022 µM |  |
| Cc1ccc(-c2cc(-c3ccccc3)cc(OCCCCCC(=O)O)n2)cc1 |  | 0.3 µM |
| O=C(O)CCCCCOc1cc(-c2ccc(NC(=O)C(F)(F)F)cc2)cc(-c2ccccc2)n1 | 0.15 µM |  |
| O=C(O)CCCCCOc1cc(-c2ccccc2Cl)cc(-c2ccccc2)n1 | 0.2 µM |  |
| NC(=O)CCCCCOc1cc(-c2ccccc2)cc(-c2ccccc2)n1 |  | 0.16 µM |
| CC(CCCCOc1cc(-c2ccccc2)cc(-c2ccccc2)n1)C(=O)O (centres undefined) | 0.004 µM |  |
| CC(CCCCOc1cc(-c2ccccc2)cc(-c2ccccc2F)n1)C(=O)O (centres undefined) | 0.004 µM |  |
| CC(CCCCOc1cc(-c2ccc3c(c2)OCO3)cc(-c2ccccc2)n1)C(=O)O (centres undefined) | 0.0042 µM |  |
| CC(C)(CCCCOc1cc(-c2ccc(N)cc2)cc(-c2ccccc2)n1)C(=O)O | 0.0066 µM |  |
| COC(=O)CCCCCOc1cc(-c2ccccc2)cc(-c2ccccc2)n1 | 0.04 µM |  |
| CC(CCCCOc1cc(-c2ccc3c(c2)OCO3)cc(-c2ccccc2Cl)n1)C(=O)O (centres undefined) | 0.002 µM |  |
| O=C(O)CCCCCOc1cc(-c2ccccc2)cc(-c2ccccc2)n1 | 0.003 µM |  |
| O=C(O)CCCCCOc1cc(-c2ccc([N+](=O)[O-])cc2)cc(-c2ccccc2)n1 | 0.05 µM |  |
| N#CCCCCCOc1cc(-c2ccccc2)cc(-c2ccccc2)n1 |  | 0.7 µM |
| O=C(O)CCCCOc1cc(-c2ccccc2)cc(-c2ccccc2)n1 | 0.05 µM |  |
| O=C(O)CCCCCOc1cc(-c2ccc3c(c2)OCO3)cc(-c2ccccc2)n1 | 0.001 µM |  |
| O=C(O)CCCCCCOc1cc(-c2ccccc2)cc(-c2ccccc2)n1 | 0.025 µM |  |
| O=C(O)CCCOc1cc(-c2ccccc2)cc(-c2ccccc2)n1 |  | 0.3 µM |
| COc1ccc(-c2cc(-c3ccccc3)cc(OCCCCCC(=O)O)n2)cc1 |  | 1 µM |
